Experimental data reported in patent publication US20230114728A1 (Venatorx Pharmaceuticals, Inc., priority 2019, published 2023).

How the values were obtained:
P. aeruginosa PBP3 = biological target: T1, P. aeruginosa PBP3 (Pseudomonas aeruginosa, UniProt G3XD46); assay: Bocillin-FL fluorescence polarization competition binding assay, P. aeruginosa PBP3; conditions: fluorescence polarization competition binding assay using Bocillin-FL
T1 construct: made in house
Outline: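 Inhibitor competition with Bocillin-FL for P. aeruginosa PBP3 was followed by fluorescence polarization on a Cytation3 (BioTek) reader, using g-factor 0.96, 490 nm excitation and 520 nm emission. The enzyme was at 0.75 μM and the probe at 0.1 μM in Hepes/NaCl/glycerol buffer, 80 μl per well. FP was recorded immediately after probe addition for up to 60 minutes. Potency was expressed as EC50, the concentration that reduces bound probe by 50%.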

E. coli K12 PBP3 = biological target: T2, E. coli K12 PBP3 (Escherichia coli, UniProt P0AD68); assay: biochemical; assay type: binding
T2 construct: made in house
T2 sequence (P0AD68 1-577): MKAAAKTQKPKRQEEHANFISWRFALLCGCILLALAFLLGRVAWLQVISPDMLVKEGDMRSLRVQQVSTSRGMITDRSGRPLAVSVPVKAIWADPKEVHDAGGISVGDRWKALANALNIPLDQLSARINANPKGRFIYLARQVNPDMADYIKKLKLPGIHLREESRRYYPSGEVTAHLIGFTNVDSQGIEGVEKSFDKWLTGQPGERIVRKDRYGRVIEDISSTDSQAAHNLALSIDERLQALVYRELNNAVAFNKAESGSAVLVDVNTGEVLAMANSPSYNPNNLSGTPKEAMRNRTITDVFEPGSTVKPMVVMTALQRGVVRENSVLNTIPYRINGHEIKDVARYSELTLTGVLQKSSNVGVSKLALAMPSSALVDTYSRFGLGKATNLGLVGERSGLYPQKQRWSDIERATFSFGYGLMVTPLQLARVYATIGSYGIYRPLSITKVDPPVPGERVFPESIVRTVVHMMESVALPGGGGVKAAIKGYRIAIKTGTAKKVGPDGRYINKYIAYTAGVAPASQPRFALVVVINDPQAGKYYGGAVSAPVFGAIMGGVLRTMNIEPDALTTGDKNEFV
Outline: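 A. baumannii PBP2 (2.5 μM) and PBP3 (0.2 μM) were run in 25 mM Tris pH 8.0 buffer with Tween 20; E. coli PBP3 (1.5 μM) and N. gonorrhoeae PBP2 ([…]) in 50 mM Hepes pH 8.0 buffer.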

T1 sequence (G3XD46 whole entry): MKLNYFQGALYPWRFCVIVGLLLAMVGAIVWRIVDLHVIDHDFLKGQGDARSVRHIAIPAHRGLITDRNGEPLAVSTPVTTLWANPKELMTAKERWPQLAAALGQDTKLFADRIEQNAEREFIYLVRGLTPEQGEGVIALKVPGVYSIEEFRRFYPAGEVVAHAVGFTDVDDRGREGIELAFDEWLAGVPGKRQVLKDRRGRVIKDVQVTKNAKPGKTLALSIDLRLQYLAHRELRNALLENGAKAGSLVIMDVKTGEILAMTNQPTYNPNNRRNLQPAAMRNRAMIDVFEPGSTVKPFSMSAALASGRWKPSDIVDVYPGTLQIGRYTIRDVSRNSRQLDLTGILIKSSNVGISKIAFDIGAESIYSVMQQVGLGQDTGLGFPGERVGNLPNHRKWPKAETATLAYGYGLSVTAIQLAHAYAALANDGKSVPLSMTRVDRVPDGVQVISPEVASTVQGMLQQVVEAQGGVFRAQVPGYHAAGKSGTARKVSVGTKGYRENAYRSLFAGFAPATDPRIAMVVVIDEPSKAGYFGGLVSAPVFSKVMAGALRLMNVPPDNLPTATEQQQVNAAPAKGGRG

## O=C(NC(C(=O)N[C@H]1Cc2ccc(F)c(C(=O)O)c2OB1O)c1ncc(O)cc1F)c1c(F)cc(O)c(O)c1Cl (stereo partly drawn) [Example 10, (3R)-3-(2-(2-chloro-6-fluoro-3,4-dihydroxybenzamido)-2-(3-fluoro-5-hydroxypyridin-2-yl)acetamido)-7-fluoro-2-hydroxy-3,4-dihydro-2H-benzo[e][1,2]oxaborinine-8-carboxylic acid]
P. aeruginosa PBP3
  P. aeruginosa PBP3 Potency: D (D represents a potency <10 μM)
E. coli K12 PBP3
  EC50: 30 to 500 µM

## CS(=O)(=O)N1CCN(C(=O)NC(C(=O)N[C@H]2Cc3ccc(F)c(C(=O)O)c3OB2O)c2ccc(O)c(O)c2Cl)C1=O (stereo partly drawn) [Example 23, (3R)-3-(2-(2-chloro-3,4-dihydroxyphenyl)-2-(3-(methylsulfonyl)-2-oxoimidazolidine-1-carboxamido)acetamido)-7-fluoro-2-hydroxy-3,4-dihydro-2H-benzo[e][1,2]oxaborinine-8-carboxylic acid]
P. aeruginosa PBP3
  P. aeruginosa PBP3 Potency: D (D represents a potency <10 μM)
E. coli K12 PBP3
  EC50: < 30 µM

## NC(C(=O)N[C@H]1Cc2ccc(F)c(C(=O)O)c2OB1O)c1c(F)cc(O)c(O)c1Cl (stereo partly drawn) [Example 25, (3R)-3-(2-amino-2-(2-chloro-6-fluoro-3,4-dihydroxyphenyl)acetamido)-7-fluoro-2-hydroxy-3,4-dihydro-2H-benzo[e][1,2]oxaborinine-8-carboxylic acid]
P. aeruginosa PBP3
  P. aeruginosa PBP3 Potency: B (B represents a potency between 30 μM and 500 μM inclusive)
E. coli K12 PBP3
  EC50: 30 to 500 µM

## CCN1CCN(C(=O)NC(C(=O)N[C@H]2Cc3ccc(F)c(C(=O)O)c3OB2O)c2c(F)cc(O)c(O)c2F)C(=O)C1=O (stereo partly drawn) [Example 36, (3R)-3-(2-(2,6-difluoro-3,4-dihydroxyphenyl)-2-(4-ethyl-2,3-dioxopiperazine-1-carboxamido)acetamido)-7-fluoro-2-hydroxy-3,4-dihydro-2H-benzo[e][1,2]oxaborinine-8-carboxylic acid]
P. aeruginosa PBP3
  P. aeruginosa PBP3 Potency: D (D represents a potency <10 μM)
E. coli K12 PBP3
  EC50: < 30 µM

## O=C(O)c1c(F)ccc2c1OB(O)[C@@H](NC(=O)C(NC(=O)N1CCN(CCF)C(=O)C1=O)c1c(F)cc(O)c(O)c1F)C2 (stereo partly drawn) [Example 37, (3R)-3-(2-(2,6-difluoro-3,4-dihydroxyphenyl)-2-(4-(2-fluoroethyl)-2,3-dioxopiperazine-1-carboxamido)acetamido)-7-fluoro-2-hydroxy-3,4-dihydro-2H-benzo[e][1,2]oxaborinine-8-carboxylic acid]
P. aeruginosa PBP3
  P. aeruginosa PBP3 Potency: D (D represents a potency <10 μM)
E. coli K12 PBP3
  EC50: < 30 µM

## CCN1CCN(C(=O)NC(C(=O)N[C@H]2Cc3ccc(F)c(C(=O)O)c3OB2O)c2cc(F)c(O)c(O)c2Cl)C(=O)C1=O (stereo partly drawn) [Example 42, (3R)-3-(2-(2-chloro-5-fluoro-3,4-dihydroxyphenyl)-2-(4-ethyl-2,3-dioxopiperazine-1-carboxamido)acetamido)-7-fluoro-2-hydroxy-3,4-dihydro-2H-benzo[e][1,2]oxaborinine-8-carboxylic acid]
P. aeruginosa PBP3
  P. aeruginosa PBP3 Potency: D (D represents a potency <10 μM)
E. coli K12 PBP3
  EC50: < 30 µM

## O=C(O)c1ccc(C(NC(=O)c2c(F)cc(O)c(O)c2Cl)C(=O)N[C@H]2Cc3ccc(F)c(C(=O)O)c3OB2O)cc1F (stereo partly drawn) [Example 71, (3R)-3-(2-(4-carboxy-3-fluorophenyl)-2-(2-chloro-6-fluoro-3,4-dihydroxybenzamido)acetamido)-7-fluoro-2-hydroxy-3,4-dihydro-2H-benzo[e][1,2]oxaborinine-8-carboxylic acid]
P. aeruginosa PBP3
  P. aeruginosa PBP3 Potency: D (D represents a potency <10 μM)
E. coli K12 PBP3
  EC50: > 500 µM

## CC(C)(C)[C@@H](NC(=O)N1CCN(CCNC(=O)c2c(F)cc(O)c(O)c2Cl)C(=O)C1=O)C(=O)N[C@H]1Cc2ccc(F)c(C(=O)O)c2OB1O [Example 80, (R)-3-((R)-2-(4-(2-(2-chloro-6-fluoro-3,4-dihydroxybenzamido)ethyl)-2,3-dioxopiperazine-1-carboxamido)-3,3-dimethylbutanamido)-7-fluoro-2-hydroxy-3,4-dihydro-2H-benzo[e][1,2]oxaborinine-8-carboxylic acid]
P. aeruginosa PBP3
  P. aeruginosa PBP3 Potency: D (D represents a potency <10 μM)
E. coli K12 PBP3
  EC50: < 30 µM
